Data published in patent publication USRE38425E1, “Semicarbazones having CNS activity and pharmaceutical preparations containing same” (University of Saskatchewan Technologies, Inc., priority 1995, dated 2004).

What was measured:
[1] = tested on: rats; test: MES screen after oral administration to rats; settings: oral administration to rats; for MES screen ED50: time t (h) per compound as in the table
[2] = tested on: rats; test: neurotoxicity screen after oral administration to rats; settings: oral administration to rats; time t (h) per compound as in the table
[3] = tested on: mice; test: MES screen after intraperitoneal injection in mice; assay type: in vivo; settings: intraperitoneal injection in mice; time t (h) per compound as in the table
[4] = tested on: mice; settings: intraperitoneal injection in mice; time t (h) per compound as in the table
[5] = tested on: mice; settings: intraperitoneal injection in mice; time t (h) per compound as in the table; remark: listed apart in the source

Q: Which results are given for CC(=NNC(N)=O)c1ccc(Oc2ccc(Br)cc2)cc1 [Compound 13d]?
A: MES screen: number of rats out of 4 which were protected ([1]; dose 12.5 mg/kg, 0.25 h): 1; MES screen: number of rats out of 4 which were protected ([1]; dose 12.5 mg/kg, 0.5 h): 3; MES screen: number of rats out of 4 which were protected ([1]; dose 12.5 mg/kg, 1 h): 4; MES screen: number of rats out of 4 which were protected ([1]; dose 12.5 mg/kg, 2 h): 4; MES screen: number of rats out of 4 which were protected ([1]; dose 12.5 mg/kg, 4 h): 4; MES screen ED50 [1]: 1.52 mg/kg; neurotoxicity screen TD50 [2]: >500 mg/kg

Q: For CC(=NNC(N)=O)c1ccc(Oc2ccc(Cl)cc2)cc1 [Compound 13c], which “MES screen: number of rats out of 4 which were protected” value (from here on “MES screen: number”) ([1]; dose 30 mg/kg, 0.25 h) is on record?
A: 3

Q: And the “MES screen: number” value ([1]; dose 30 mg/kg, 0.5 h)?
A: 4

Q: And the “MES screen: number” value ([1]; dose 30 mg/kg, 1 h)?
A: 4

Q: What about the “MES screen: number” value ([1]; dose 30 mg/kg, 2 h) of the same molecule?
A: 4

Q: And the “MES screen: number” value ([1]; dose 30 mg/kg, 4 h)?
A: 4

Q: And the “MES screen ED50” value [1]?
A: 2.92 mg/kg

Q: And the “neurotoxicity screen TD50” value [2]?
A: <500 mg/kg

Q: With NC(=O)NN=Cc1ccc(OC(=O)c2ccc(Cl)cc2)cc1 [15c] as the molecule, how does the “MES screen: number” value ([1]; dose 12.5 mg/kg, 0.25 h) read?
A: 1

Q: What about the “MES screen: number” value ([1]; dose 12.5 mg/kg, 1 h) of the same molecule?
A: 1

Q: What about the “MES screen: number” value ([1]; dose 12.5 mg/kg, 4 h) of the same molecule?
A: 2

Q: What does the source list for NC(=O)NN=Cc1ccc(Oc2ccc(F)cc2Br)cc1 [Compound 5m]?
A: MES screen 0.25 h: number of rats out of 4 which were protected ([1]; dose 50 mg/kg, 0.25 h): 4; MES screen 0.5 h: number of rats out of 4 which were protected ([1]; dose 50 mg/kg, 0.5 h): 4; MES screen 1 h: number of rats out of 4 which were protected ([1]; dose 50 mg/kg, 1 h): 4; MES screen 2 h: number of rats out of 4 which were protected ([1]; dose 50 mg/kg, 2 h): 4; MES screen 4 h: number of rats out of 4 which were protected ([1]; dose 50 mg/kg, 4 h): 4

Q: What does the source list for CC(C)(C)c1ccc(Oc2ccc(C=NNC(N)=O)cc2)cc1 [Compound 5s]?
A: MES screen ED50 [3]: 8.87 mg/kg; MES screen 1 h: number of rats out of 4 which were protected ([1]; dose 12.5 mg/kg, 1 h): 4; MES screen 2 h: number of rats out of 4 which were protected ([1]; dose 12.5 mg/kg, 2 h): 4; MES screen 4 h: number of rats out of 4 which were protected ([1]; dose 12.5 mg/kg, 4 h): 4; MES screen ED50 [1]: 1.68 mg/kg; neurotoxicity screen TD50 [2]: >500 mg/kg; neurotoxicity screen TD50 [4]: 105.92 mg/kg; acPTZ screen ED50 [5]: >150.00 mg/kg

Q: For CCc1ccc(Oc2ccc(C=NNC(N)=O)cc2)cc1 [Compound 5p], which “MES screen 0.5 h: number of rats out of 4 which were protected” value ([1]; dose 12.5 mg/kg, 0.5 h) is on record?
A: 2

Q: What about the “MES screen 1 h: number of rats out of 4 which were protected” value ([1]; dose 12.5 mg/kg, 1 h) of the same molecule?
A: 4

Q: What about the “MES screen 2 h: number of rats out of 4 which were protected” value (“MES screen 2 h: number” below) ([1]; dose 12.5 mg/kg, 2 h) of the same molecule?
A: 4

Q: What about the “MES screen 4 h: number of rats out of 4 which were protected” value (from here on “MES screen 4 h: number”) ([1]; dose 12.5 mg/kg, 4 h) of the same molecule?
A: 4

Q: And the “MES screen ED50” value [1]?
A: 6.48 mg/kg

Q: How did the “MES screen: number” value ([1]; dose 12.5 mg/kg, 1 h) turn out when NC(=O)NN=Cc1ccc(OCc2ccccc2)cc1 [15d] was run?
A: 1

Q: What about the “MES screen: number” value ([1]; dose 12.5 mg/kg, 2 h) of the same molecule?
A: 1

Q: How did the “MES screen 2 h: number” value ([1]; dose 50 mg/kg, 2 h) turn out when NC(=O)NN=Cc1ccc(Oc2ccc(Oc3ccccc3)cc2)cc1 [Compound 4i] was run?
A: 1

Q: What about the “MES screen 4 h: number” value ([1]; dose 50 mg/kg, 4 h) of the same molecule?
A: 1

Q: What does the source list for CCC(=NNC(N)=O)c1ccc(Oc2ccc(Br)cc2)cc1 [Compound 13h]?
A: MES screen: number of rats out of 4 which were protected ([1]; dose 12.5 mg/kg, 0.5 h): 2; MES screen: number of rats out of 4 which were protected ([1]; dose 12.5 mg/kg, 1 h): 4; MES screen: number of rats out of 4 which were protected ([1]; dose 12.5 mg/kg, 2 h): 4; MES screen: number of rats out of 4 which were protected ([1]; dose 12.5 mg/kg, 4 h): 4; MES screen ED50 [1]: 4.39 mg/kg

Q: What does the source list for N#Cc1ccc(Oc2ccc(C=NNC(N)=O)cc2)cc1 [Compound 4j]?
A: MES screen 0.25 h: number of rats out of 4 which were protected ([1]; dose 12.5 mg/kg, 0.25 h): 2; MES screen 0.5 h: number of rats out of 4 which were protected ([1]; dose 12.5 mg/kg, 0.5 h): 4; MES screen 1 h: number of rats out of 4 which were protected ([1]; dose 12.5 mg/kg, 1 h): 4; MES screen 2 h: number of rats out of 4 which were protected ([1]; dose 12.5 mg/kg, 2 h): 4; MES screen 4 h: number of rats out of 4 which were protected ([1]; dose 12.5 mg/kg, 4 h): 4

Q: With CC(=NNC(N)=O)c1ccc(Oc2ccccc2)cc1 [Compound 13a] as the molecule, how does the “MES screen ED50” value [3] read?
A: 9.08 mg/kg

Q: And the “MES screen: number” value ([1]; dose 30 mg/kg, 0.25 h)?
A: 4

Q: And the “MES screen: number” value ([1]; dose 30 mg/kg, 0.5 h)?
A: 4

Q: What about the “MES screen: number” value ([1]; dose 30 mg/kg, 1 h) of the same molecule?
A: 4

Q: And the “MES screen: number” value ([1]; dose 30 mg/kg, 2 h)?
A: 4

Q: What about the “MES screen: number” value ([1]; dose 30 mg/kg, 4 h) of the same molecule?
A: 4

Q: What about the “MES screen ED50” value [1] of the same molecule?
A: 9.73 mg/kg

Q: What about the “neurotoxicity screen TD50” value [4] of the same molecule?
A: 73.48 mg/kg

Q: And the “acPTZ screen ED50” value [5]?
A: 43.31 mg/kg

Q: CC(=NNC(N)=O)c1ccccc1Oc1ccc(F)cc1 [Compound 14b] was tested. Which “MES screen: number” value ([1]; dose 30 mg/kg, 0.25 h) did it give?
A: 1

Q: And the “MES screen: number” value ([1]; dose 30 mg/kg, 0.5 h)?
A: 1

Q: What about the “MES screen: number” value ([1]; dose 30 mg/kg, 1 h) of the same molecule?
A: 3

Q: And the “MES screen: number” value ([1]; dose 30 mg/kg, 2 h)?
A: 3

Q: And the “MES screen: number” value ([1]; dose 30 mg/kg, 4 h)?
A: 2

Q: And the “MES screen ED50” value [1]?
A: 43.37 mg/kg

Q: How did the “MES screen 2 h: number” value ([1]; dose 12.5 mg/kg, 2 h) turn out when NC(=O)NN=Cc1ccc(Oc2ccc(-c3ccccc3)cc2)cc1 [Compound 4g] was run?
A: 3

Q: What about the “MES screen 4 h: number” value ([1]; dose 12.5 mg/kg, 4 h) of the same molecule?
A: 1

Q: Which results are given for COc1ccc(Oc2ccc(C=NNC(N)=O)cc2)cc1 [Compound 4h]?
A: MES screen 0.5 h: number of rats out of 4 which were protected ([1]; dose 50 mg/kg, 0.5 h): 4; MES screen 1 h: number of rats out of 4 which were protected ([1]; dose 50 mg/kg, 1 h): 4; MES screen 2 h: number of rats out of 4 which were protected ([1]; dose 50 mg/kg, 2 h): 4; MES screen 4 h: number of rats out of 4 which were protected ([1]; dose 50 mg/kg, 4 h): 4
